Key:
[1] = system: Streptococcus pneumoniae; test: Antimicrobial activity against ciprofloxacin-resistant Streptococcus pneumoniae T21 harboring parC mutant gene by agar dilution method
[2] = system: Streptococcus pneumoniae; test: Antimicrobial activity against ciprofloxacin-resistant Streptococcus pneumoniae T12 harboring gyrA mutant gene by agar dilution method
[3] = system: Streptococcus pneumoniae; test: Antimicrobial activity against ciprofloxacin-resistant Streptococcus pneumoniae T18 harboring gyrA mutant gene by agar dilution method
[4] = system: Streptococcus pneumoniae; test: Antimicrobial activity against ciprofloxacin-resistant Streptococcus pneumoniae T16 harboring parC mutant gene by agar dilution method
[5] = system: Streptococcus pneumoniae; test: Antimicrobial activity against ciprofloxacin-resistant Streptococcus pneumoniae T29 harboring gyrA mutant gene by agar dilution method
[6] = system: Streptococcus pneumoniae; test: Antimicrobial activity against ciprofloxacin-resistant Streptococcus pneumoniae T14 harboring gyrA mutant gene by agar dilution method
[7] = system: Streptococcus pneumoniae; test: Antimicrobial activity against ciprofloxacin-resistant Streptococcus pneumoniae T6 harboring parC mutant gene by agar dilution method
[8] = system: Streptococcus pneumoniae; test: Antimicrobial activity against ciprofloxacin-resistant Streptococcus pneumoniae T3 harboring gyrA mutant gene by agar dilution method
[9] = system: Streptococcus pneumoniae; test: Antimicrobial activity against ciprofloxacin-resistant Streptococcus pneumoniae T13 harboring gyrA mutant gene by agar dilution method
[10] = system: Streptococcus pneumoniae; test: Antimicrobial activity against ciprofloxacin-resistant Streptococcus pneumoniae T11 harboring parE-ant-parC mutant gene by agar dilution method
[11] = system: Streptococcus pneumoniae; test: Antimicrobial activity against ciprofloxacin-resistant Streptococcus pneumoniae T24 harboring gyrA mutant gene by agar dilution method
[12] = system: Streptococcus pneumoniae; test: Antimicrobial activity against ciprofloxacin-resistant Streptococcus pneumoniae T25 harboring gyrA mutant gene by agar dilution method
[13] = system: Streptococcus pneumoniae; test: Antimicrobial activity against ciprofloxacin-resistant Streptococcus pneumoniae T2 harboring gyrA mutant gene by agar dilution method
[14] = system: Streptococcus pneumoniae; test: Antimicrobial activity against ciprofloxacin-resistant Streptococcus pneumoniae T9 harboring gyrA mutant gene by agar dilution method
[15] = system: Streptococcus pneumoniae; test: Antimicrobial activity against ciprofloxacin-resistant Streptococcus pneumoniae T7 harboring gyrA mutant gene by agar dilution method
[16] = system: Streptococcus pneumoniae; test: Antimicrobial activity against ciprofloxacin-resistant Streptococcus pneumoniae T30 harboring gyrA mutant gene by agar dilution method
[17] = system: Streptococcus pneumoniae; test: Antimicrobial activity against ciprofloxacin-resistant Streptococcus pneumoniae T20 harboring gyrA mutant gene by agar dilution method
[18] = system: Streptococcus pneumoniae; test: Antimicrobial activity against ciprofloxacin-resistant Streptococcus pneumoniae T4 harboring gyrA mutant gene by agar dilution method
[19] = system: Streptococcus pneumoniae; test: Antimicrobial activity against ciprofloxacin-resistant Streptococcus pneumoniae T28 harboring gyrA mutant gene by agar dilution method
[20] = system: Streptococcus pneumoniae; test: Antimicrobial activity against ciprofloxacin-resistant Streptococcus pneumoniae T19 harboring gyrA mutant gene by agar dilution method
[21] = system: Streptococcus pneumoniae; test: Antimicrobial activity against ciprofloxacin-resistant Streptococcus pneumoniae T1 harboring parC mutant gene by agar dilution method
[22] = system: Streptococcus pneumoniae; test: Antimicrobial activity against ciprofloxacin-resistant Streptococcus pneumoniae T8 harboring gyrA mutant gene by agar dilution method
[23] = system: Streptococcus pneumoniae; test: Antimicrobial activity against ciprofloxacin-resistant Streptococcus pneumoniae T26 harboring parC mutant gene by agar dilution method
[24] = system: Streptococcus pneumoniae; test: Antimicrobial activity against ciprofloxacin-resistant Streptococcus pneumoniae T23 harboring gyrA mutant gene by agar dilution method

Measured: MIC

O=C(O)c1cn(C2CC2)c2cc(N3CCNCC3)c(F)cc2c1=O [CIPROFLOXACIN]
64 µg/mL: [3]
32 µg/mL: [2] | [5] | [6] | [8] | [9] | [13] | [14] | [15] | [16] | [17] | [18] | [19] | [20] | [22]
4 µg/mL: [21] | [23]
2 µg/mL: [1] | [4] | [7] | [10]
16 µg/mL: [11] | [12] | [24]

— ChEMBL document CHEMBL1255248, “Fitness of Streptococcus pneumoniae fluoroquinolone-resistant strains with topoisomerase IV recombinant genes” (2008)
